According to paper PMC8072890, “Aminoalkylamides of Eremomycin Exhibit an Improved Antibacterial Activity” (Pharmaceuticals, 2021):

Tests used:
Type in all cases: cell-based
E. faecalis 559 = conditions: sensitive strain; broth dilution micromethod, CLSI; modal values (or range) of 3–5 independent tests
Text: (§1) The antimicrobial activity of semisynthetic derivatives of eremomycin 4a–q was studied in comparison with vancomycin on a wide panel of Gram-positive bacteria sensitive (Staphylococcus aureus ATCC 29213, S. aureus R-2, S. haemoliticus 602, S. pneumoniae ATCC 6305, Enteroccus faecium 4, and E. faecalis 559) and resistant to vancomycin (S. aureus 3797, S.aureus 3798, E. faecium 2, E. faecium 3576, E. faecalis 9, E. faecalis 583, and E. gallinarum BΠ 4147), information about the strains given in Table S3. The minimum microbial inhibitory concentration (MIC) for the test compounds was determined by the broth dilution micromethod according to CLSI guidelines, and vancomycin and a standard strain S. aureus ATCC 29213 used as controls (Figure 2 and Tables S4 and S5).
(§2) Table S4. Antibacterial activity of vancomycin and derivatives 4a–q against sensitive Gram-positive bacteria.
(§3) Strain/MIC (Minimum inhibitory concentration, μg/ml)*
(§4) Compound m n R S.aureus АТСС S.aureus R-2 S.haemoliticus S.pneumoniae АТСС E. faecium 4 E. faecalis 559
(§5) *MICs are presented as modal values for 3–5 independently replicated MIC tests for each strain and for the antibiotics. In the range of the
(§6) obtained MIC values, the obtained modal values are highlighted in bold.

E. faecium 4 = conditions: sensitive strain; broth dilution micromethod, CLSI; modal values (or range) of 3–5 independent tests
Text: as §1, §2, §3, §4, §5, §6

S. aureus R-2 = conditions: sensitive strain; broth dilution micromethod, CLSI; modal values (or range) of 3–5 independent tests
Text: as §1, §2, §3, §4, §5, §6

S. haemoliticus 602 = conditions: sensitive strain; broth dilution micromethod, CLSI; modal values (or range) of 3–5 independent tests
Text: as §1, §2, §3, §4, §5, §6

[1] = system: Staphylococcus aureus ATCC 29213; conditions: vancomycin-sensitive control strain; broth dilution micromethod, CLSI; modal values (or range) of 3–5 independent tests
Text: as §1, §2, §3, §4, §5, §6

S. pneumoniae ATCC 6305 = experiment: MIC, broth dilution micromethod (CLSI); conditions: sensitive strain, modal values (or range) of 3–5 independent tests
Text: as §1, §2, §3, §4, §5, §6

E. faecalis 583 = conditions: strain resistant to vancomycin; broth dilution micromethod, CLSI; modal values (or range) of 3–5 independent tests
Text: as §1
(§7) Table S5. Antibacterial activity of vancomycin and derivatives 4a–q against resistant Gram-positive bacteria.
(§8) Strain/MIC (minimum inhibitory concentration; μg/ml)
(§9) Compound m n R S.aureus 3797 S.aureus 3798 E. faecium 2 E. faecium 3576 E. faecalis 9 E. faecalis 583 E. gallinarum
(§10) *MICs are presented as modal values for 3–5 independently replicate MIC tests for each strain and for the antibiotics. In the range of the obtained MIC
(§11) values, the obtained modal values are highlighted in bold.

E. faecalis 9 = conditions: strain resistant to vancomycin; broth dilution micromethod, CLSI; modal values (or range) of 3–5 independent tests
Text: as §1, §7, §8, §9, §10, §11

E. faecium 2 = conditions: strain resistant to vancomycin; broth dilution micromethod, CLSI; modal values (or range) of 3–5 independent tests
Text: as §1, §7, §8, §9, §10, §11

E. faecium 3576 = conditions: strain resistant to vancomycin; broth dilution micromethod, CLSI; modal values (or range) of 3–5 independent tests
Text: as §1, §7, §8, §9, §10, §11

E. gallinarum BΠ 4147 = conditions: strain resistant to vancomycin; broth dilution micromethod, CLSI; modal values (or range) of 3–5 independent tests
Text: as §1, §7, §8, §9, §10, §11

S. aureus 3797 = conditions: strain resistant to vancomycin; broth dilution micromethod, CLSI; modal values (or range) of 3–5 independent tests
Text: as §1, §7, §8, §9, §10, §11

S.aureus 3798 = conditions: strain resistant to vancomycin; broth dilution micromethod, CLSI; modal values (or range) of 3–5 independent tests
Text: as §1, §7, §8, §9, §10, §11

| Substance | MIC E. faecalis 559 (E. faecalis 559) [µg/mL] | MIC E. faecium 4 (E. faecium 4) [µg/mL] | MIC S.aureus R-2 (S. aureus R-2) [µg/mL] | MIC S.haemoliticus 602 (S. haemoliticus 602) [µg/mL] | MIC S.aureus ATCC 29213 [1] [µg/mL] | MIC S.pneumoniae ATCC 6305 (S. pneumoniae ATCC 6305) [µg/mL] | MIC E. faecalis 583 (E. faecalis 583) [µg/mL] | MIC E. faecalis 9 (E. faecalis 9) [µg/mL] | MIC E. faecium 2 (E. faecium 2) [µg/mL] | MIC E. faecium 3576 (E. faecium 3576) [µg/mL] | MIC E. gallinarum ВП 4147 (E. gallinarum BΠ 4147) [µg/mL] | MIC S.aureus 3797 (S. aureus 3797) [µg/mL] | MIC S.aureus 3798 (S.aureus 3798) [µg/mL] |
| --- | --- | --- | --- | --- | --- | --- | --- | --- | --- | --- | --- | --- | --- |
| Eremomycin N-(2-((3-fluorobenzyl)amino)ethyl)amide [4g] | 0.25 to 0.5 | 0.25 | 0.06 | 0.5 | 0.03 | 0.01 | 0.5 to 1 | 0.03 | 0.5 | 1 | 1 | 1 | 2 |
| Eremomycin N-(2-((4-chlorobenzyl)amino)ethyl)amide [4i] | 0.5 | 0.25 | 0.25 | 0.25 | 0.125 to 0.25 | 00.03 | 0.5 to 1 | 0.06 | 0.5 | 1 | 0.5 | 0.25 to 0.5 | 1 |
| Eremomycin N-(2-((4-fluorobenzyl)amino)ethyl)amide [4h] | 0.125 | 0.25 | 0.06 | 0.25 | 0.25 | 0.01 | 0.5 to 1 | 0.03 | 0.5 | 2 | 0.5 to 1 | 0.25 | 0.5 |
| Eremomycin N-(2-((4-methoxybenzyl)amino)ethyl)amide [4d] | 0.5 | 0.25 | 0.06 | 0.25 | 0.03 | 0.01 | 0.5 | 0.03 | 0.5 | 0.5 to 1 | 1 | 0.5 | 0.5 to 1 |
| Eremomycin N-(2-((4-methylbenzyl)amino)ethyl)amide [4c] | 0.25 | 0.25 | 0.25 | 0.25 | 0.25 | 0.01 | 1 to 2 | 0.03 | 1 | 1 | 0.5 | 0.5 | 1 |
| Eremomycin N-(2-((4-trifluoromethylbenzyl)amino)ethyl)amide [4q] | 2 | 1 | 2 | 0.5 | 1 | 0.01 | 4 | 0.25 | 1 to 2 | 4 | 4 | 2 | 2 |
| Eremomycin N-(2-(benzylamino)ethyl)amide [4a] | 0.25 | 0.25 to 0.5 | 0.03 | 0.5 | 0.25 | 0.25 | 0.5 | 0.06 | 1 | 1 to 2 | 1 | 0.5 | 0.5 to 1 |
| Eremomycin N-(2-phenethylamino)ethyl)amide [4b] | 0.5 | 0.5 | 0.06 | 0.5 | 0.5 | 0.01 | 0.5 | 0.06 | 1 | 2 | 1 | 1 | 2 |
